Source: US20240246964A1 (Arbutus Biopharma Corporation, priority 2021, published 2024)
pEC50, pIC50: −log10 of the molar value. Read-outs that look alike come from different tables or passages of the source.

Experiments:
[1] = target: PD-L1 His protein / PD-1 Fc protein (Homo sapiens (Human), UniProt Q9NZQ7); assay: HTRF Assay (PD-1/PD-L1 interaction); type: binding
human PD-L1 = human PD-L1 (Homo sapiens (Human), UniProt Q9NZQ7); assay: T cell activation luciferase reporter cell culture system (T Cell Activation Assay); type: cell-based
[2] = luciferase reporter assay, PD-L1 aAPC/CHO-K1 cells with PD-1 effector Jurkat T cells

Chain of PD-L1 His protein / PD-1 Fc protein (Q9NZQ7 19-238): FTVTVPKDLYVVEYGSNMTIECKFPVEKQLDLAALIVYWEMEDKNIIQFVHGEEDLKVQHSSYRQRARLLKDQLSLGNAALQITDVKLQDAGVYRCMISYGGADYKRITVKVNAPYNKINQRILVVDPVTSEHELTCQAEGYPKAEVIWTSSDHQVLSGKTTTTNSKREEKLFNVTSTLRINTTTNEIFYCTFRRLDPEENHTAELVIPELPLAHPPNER
Chain of human PD-L1 (Q9NZQ7 19-290): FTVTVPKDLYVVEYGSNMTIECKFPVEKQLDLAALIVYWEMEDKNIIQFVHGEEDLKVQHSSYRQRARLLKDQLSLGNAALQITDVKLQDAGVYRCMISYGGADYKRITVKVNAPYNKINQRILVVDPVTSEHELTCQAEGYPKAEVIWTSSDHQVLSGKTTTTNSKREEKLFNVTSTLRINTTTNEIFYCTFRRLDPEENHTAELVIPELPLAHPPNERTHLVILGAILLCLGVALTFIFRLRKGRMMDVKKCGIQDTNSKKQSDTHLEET

Compound | pEC50 (human PD-L1; [2]) | other results
COc1cc(-c2nccc(-c3cccc(-c4ccc(CNCCNC(C)=O)c(OC)n4)c3Cl)c2Cl)ccc1CNCCNC(C)=O | 7.15 | pIC50 ([1]; PD-L1 His 6 nM, PD-1 Fc 6 nM): 8.86
COc1cc(-c2nccc(-c3cccc(-c4ccc(CN(C)C5CCN(C(C)=O)CC5)c(OC)n4)c3Cl)c2Cl)ccc1CNC1CCN(C(C)=O)CC1 | 7.31 | pIC50 ([1]; PD-L1 His 6 nM, PD-1 Fc 6 nM): 8.51
1-(6-((6-(2-Chloro-3-(3-chloro-2-(3-methoxy-4-((6-(2-methoxyacetyl)-2,6-diazaspiro[3.3]heptan-2-yl)methyl)phenyl)pyridin-4-yl)phenyl)-2-methoxypyridin-3-yl)methyl)-2,6-diazaspiro[3.3]heptan-2-yl)-2-methoxyethan-1-one [Example 594] | – | pIC50 [1]: 9.77; pEC50 (human PD-L1): 7.47
2-(4-(3-Chloro-4-(2-chloro-3-(5-methoxy-6-((7-oxo-2,6-diazaspiro[3.4]octan-2-yl)methyl)pyridin-3-yl)phenyl)pyridin-2-yl)-2-methoxybenzyl)-2,6-diazaspiro[3.4]octan-7-one [Example 566] | 6.47 | pIC50 ([1]; PD-L1 His 6 nM, PD-1 Fc 6 nM): 9.03
COc1nc(-c2cccc(-c3ccnc(-c4ccc5c(c4)CCCC5NC[C@@H]4CCC(=O)N4)c3Cl)c2Cl)ccc1CNC[C@@H]1CCC(=O)N1 (mixture of isomers) [Compound 112, (5S)-5-((((6-(2-chloro-3-(3-chloro-2-(5-((((S)-5-oxopyrrolidin-2-yl)methyl)amino)-5,6,7,8-tetrahydronaphthalen-2-yl)pyridin-4-yl)phenyl)-2-methoxypyridin-3-yl)methyl)amino)methyl)pyrrolidin-2-one] | 7.30 | pIC50 ([1]; PD-L1 His 6 nM, PD-1 Fc 6 nM): 9.00
COc1nc(-c2cccc(-c3ccnc(-c4ccc5c(c4)CCCC5NC[C@H](C)O)c3Cl)c2Cl)ccc1CNC[C@@H]1CCC(=O)N1 (mixture of isomers) [Compound 113, (5S)-5-((((6-(2-chloro-3-(3-chloro-2-(5-(((S)-2-hydroxypropyl)amino)-5,6,7,8-tetrahydronaphthalen-2-yl)pyridin-4-yl)phenyl)-2-methoxypyridin-3-yl)methyl)amino)methyl)pyrrolidin-2-one] | 6.73 | pIC50 ([1]; PD-L1 His 6 nM, PD-1 Fc 6 nM): 9.15
COc1cc(-c2nccc(-c3ccnc(-c4ccc(CNC[C@@H]5CCC(=O)N5)c(OC)c4)c3Cl)c2Cl)ccc1CNC[C@@H]1CCC(=O)N1 [Compound 4, (5S,5′S)-5,5′-(((((3,3′-dichloro-[4,4′-bipyridine]-2,2′-diyl)bis(2-methoxy-4,1-phenylene))bis(methylene))bis(azanediyl))bis(methylene))bis(pyrrolidin-2-one)] | 7.02 | pIC50 ([1]; PD-L1 His 6 nM, PD-1 Fc 6 nM): 8.08
COc1nc(-c2ccnc(-c3cccc4c3CC[C@@H]4Oc3nc(OC)c(CNC[C@@H]4CCC(=O)N4)cc3C(F)(F)F)c2Cl)ccc1CNC1CCN(C(C)=O)CC1 [Example 544, (S)-5-((((6-(((S)-4-(5-(((1-acetylpiperidin-4-yl)amino)methyl)-3′-chloro-6-methoxy-[2,4′-bipyridin]-2′-yl)-2,3-dihydro-1H-inden-1-yl)oxy)-2-methoxy-5-(trifluoromethyl)pyridin-3-yl)methyl)amino)methyl)pyrrolidin-2-one] | – | pIC50 ([1]; PD-L1 His 6 nM, PD-1 Fc 6 nM): 9.10
COc1cc(-c2nccc(-c3cccc(NC(=O)c4ccc(CNCCO)cn4)c3Cl)c2Cl)ccc1CNC1CCN(C(C)=O)CC1 [Example 733, N-(3-(2-(4-(((1-Acetylpiperidin-4-yl)amino)methyl)-3-methoxyphenyl)-3-chloropyridin-4-yl)-2-chlorophenyl)-5-(((2-hydroxyethyl)amino)methyl)picolinamide] | 7.54 | –
COc1cc(-c2ncnc(-c3cccc(-c4ccc(CNC5CCOCC5)c(OC)n4)c3Cl)c2OC)ccc1CNC1CCOCC1 [Example 734, N-((6-(2-Chloro-3-(5-methoxy-6-(3-methoxy-4-(((tetrahydro-2H-pyran-4-yl)amino)methyl)phenyl)pyrimidin-4-yl)phenyl)-2-methoxypyridin-3-yl)methyl)tetrahydro-2H-pyran-4-amine] | ≤ 5.00 | –
COc1cc(-c2nccc(-c3cccc4c3CCC[C@@H]4Nc3nc(OC)c(CNC[C@H](C)O)cc3C(F)(F)F)c2Cl)ccc1CNC[C@@H]1CCC(=O)N1 [Example 736, (S)-5-(((4-(3-Chloro-4-((S)-5-((5-((((S)-2-hydroxypropyl)amino)methyl)-6-methoxy-3-(trifluoromethyl)pyridin-2-yl)amino)-5,6,7,8-tetrahydronaphthalen-1-yl)pyridin-2-yl)-2-methoxybenzyl)amino)methyl)pyrrolidin-2-one] | ≤ 5.00 | –
COc1cc(-c2ncnc(-c3cccc(-c4ccc(CN[C@H]5C[C@@H](O)C5)c(OC)n4)c3Cl)c2Cl)ccc1CN1CC2(CNC(=O)C2)C1 [Example 737, 2-(4-(5-Chloro-6-(2-chloro-3-(5-((((1s,3s)-3-hydroxycyclobutyl)amino)methyl)-6-methoxypyridin-2-yl)phenyl)pyrimidin-4-yl)-2-methoxybenzyl)-2,6-diazaspiro[3.4]octan-7-one] | 6.96 | –
COc1nc(-c2nccc(-c3cccc(NC(=O)c4cn(C)c(=O)n(C)c4=O)c3Cl)c2Cl)ccc1CNC[C@@H]1CCC(=O)N1 [Example 738, (S)—N-(2-Chloro-3-(3-chloro-6′-methoxy-5′-((((5-oxopyrrolidin-2-yl)methyl)amino)methyl)-[2,2′-bipyridin]-4-yl)phenyl)-1,3-dimethyl-2,4-dioxo-1,2,3,4-tetrahydropyrimidine-5-carboxamide] | 6.57 | –
COc1nc(-c2nccc(-c3cccc(NC(=O)c4cn(C)c(=O)n(C)c4=O)c3Cl)c2Cl)ccc1CNC[C@H](C)O [Example 739, (S)—N-(2-Chloro-3-(3-chloro-5′-(((2-hydroxypropyl)amino)methyl)-6′-methoxy-[2,2′-bipyridin]-4-yl)phenyl)-1,3-dimethyl-2,4-dioxo-1,2,3,4-tetrahydropyrimidine-5-carboxamide] | 5.73 | –
COc1cc(-c2ncnc(-c3cccc(-c4ccc(CN[C@H]5C[C@H](O)C5)c(OC)n4)c3Cl)c2Cl)ccc1CN1CC2(CNC(=O)C2)C1 [Example 740] | 7.09 | –

Now from value to compound, other results behind:

pEC50 (human PD-L1; [2]) | Compound | other results
≤ 5.00 | CNCc1ccc(-c2nccc(-c3cccc4c3CCC[C@@H]4Nc3nc(OC)c(CNC)cc3C(F)(F)F)c2Cl)cc1OC [Example 741, (S)—N-(5-(3-Chloro-2-(3-methoxy-4-((methylamino)methyl)phenyl)pyridin-4-yl)-1,2,3,4-tetrahydronaphthalen-1-yl)-6-methoxy-5-((methylamino)methyl)-3-(trifluoromethyl)pyridin-2-amine] | –
7.54 | COc1cc(-c2ncnc(-c3cccc(-c4ccc(CNC[C@@H]5CCC(=O)N5)c(OC)n4)c3Cl)c2Cl)ccc1CN1CC2(CNC(=O)C2)C1 [Example 742, (S)-2-(4-(5-Chloro-6-(2-chloro-3-(6-methoxy-5-((((5-oxopyrrolidin-2-yl)methyl)amino)methyl)pyridin-2-yl)phenyl)pyrimidin-4-yl)-2-methoxybenzyl)-2,6-diazaspiro[3.4]octan-7-one] | –
≤ 5.00 | COc1cc(-c2ncnc(-c3cccc(-c4ccc(CN5CC6(CCC(=O)N6)C5)c(OC)n4)c3Cl)c2OC)ccc1CN1CC2(CCC(=O)N2)C1 [Example 743, 2-((6-(2-Chloro-3-(5-methoxy-6-(3-methoxy-4-((6-oxo-2,5-diazaspiro[3.4]octan-2-yl)methyl)phenyl)pyrimidin-4-yl)phenyl)-2-methoxypyridin-3-yl)methyl)-2,5-diazaspiro[3.4]octan-6-one] | –
6.81 | COc1cc(-c2nccc(-c3cccc(NC(=O)c4ccc(CNCCO)cn4)c3C)c2Cl)ccc1CN1CC2(CNC(=O)C2)C1 [Example 744, N-(3-(3-Chloro-2-(3-methoxy-4-((7-oxo-2,6-diazaspiro[3.4]octan-2-yl)methyl)phenyl)pyridin-4-yl)-2-methylphenyl)-5-(((2-hydroxyethyl)amino)methyl)picolinamide] | –
6.08 | COc1cc(-c2nccc(-c3cccc(NC(=O)c4ccc(CNC[C@@H]5CCC(=O)N5)cn4)c3C)c2Cl)ccc1CNC1CCN(C(C)=O)CC1 [Example 747, (S)—N-(3-(2-(4-(((1-acetylpiperidin-4-yl)amino)methyl)-3-methoxyphenyl)-3-chloropyridin-4-yl)-2-methylphenyl)-5-((((5-oxopyrrolidin-2-yl)methyl)amino)methyl)picolinamide] | –
6.00 | COc1cc(-c2nccc(-c3cccc(NC(=O)c4ccc(CNC[C@@H]5CCC(=O)N5)cn4)c3C)c2Cl)ccc1CNC1CCOCC1 [Example 748, (S)—N-(3-(3-chloro-2-(3-methoxy-4-(((tetrahydro-2H-pyran-4-yl)amino)methyl)phenyl)pyridin-4-yl)-2-methylphenyl)-5-((((5-oxopyrrolidin-2-yl)methyl)amino)methyl)picolinamide] | –
6.15 | COc1cc(-c2nccc(-c3cccc(NC(=O)c4ccc(CNC[C@@H]5CCC(=O)N5)cn4)c3C)c2Cl)ccc1CNCCO [Example 750, (S)—N-(3-(3-Chloro-2-(4-(((2-hydroxyethyl)amino)methyl)-3-methoxyphenyl)pyridin-4-yl)-2-methylphenyl)-5-((((5-oxopyrrolidin-2-yl)methyl)amino)methyl)picolinamide] | –
8.25 | CNCc1ccc(C(=O)Nc2cccc(-c3ccnc(-c4ccc(CNC[C@@H]5CCC(=O)N5)c(OC)c4)c3Cl)c2Cl)nc1 [Example 751, (S)—N-(2-Chloro-3-(3-chloro-2-(3-methoxy-4-((((5-oxopyrrolidin-2-yl)methyl)amino)methyl)phenyl)pyridin-4-yl)phenyl)-5-((methylamino)methyl)picolinamide] | –
5.99 | COc1cc(-c2nccc(-c3cccc(NC(=O)c4ccc(C(=O)O)cn4)c3Cl)c2Cl)ccc1CNC[C@@H]1CCC(=O)N1 [Example 752, (S)-6-((2-Chloro-3-(3-chloro-2-(3-methoxy-4-((((5-oxopyrrolidin-2-yl)methyl)amino)methyl)phenyl)pyridin-4-yl)phenyl)carbamoyl)nicotinic acid] | –
8.04 | COc1cc(-c2nccc(-c3cccc(NC(=O)c4ccc(CNCCO)cn4)c3Cl)c2Cl)ccc1CN1CC2(CNC(=O)C2)C1 [Example 754, N-(2-Chloro-3-(3-chloro-2-(3-methoxy-4-((7-oxo-2,6-diazaspiro[3.4]octan-2-yl)methyl)phenyl)pyridin-4-yl)phenyl)-5-(((2-hydroxyethyl)amino)methyl)picolinamide] | –
